Assay [1] deals with cultured rat hippocampal neurons. Nature of the assay: Intracellular free Mg2+ analysis (Magnesium Green) in hippocampal neuron cultures.
Protocol: (§3) Neurons were plated onto Matrigel® (BD)-coated 8×8 mm coverslips or 6-well cell plates (Corning).
[Mg^2+]i was determined by using Magnesium Green™ (MgGreen, Invitrogen).
Where F(a.u.) is the mean fluorescent density (arbitrary units) in the branch of interest which was quantified by using Image-Pro Plus software (IPP, Media Cybernetics, Carlsbad, Calif.), and Ddiameter is the mean width of the same selected branch in DIC image.
The subject of assay [2] is hippocampal neurons. Nature of the assay: Functional terminal density by FM1-43 imaging.
Protocol: as §3
Background FM, determined by imaging after unloading of FM dye following 480 APs at 2 Hz, was subtracted from the physiological action potential image. Terminals containing detectable amount of FM after subtraction were considered to be functional.
FM 1-43+ puncta number per μm^2 of dendrite was used to estimate functional presynaptic terminal density.
Assay [3] has as its system hippocampal neurons. Conditions: threonate 0-150 μM, 2 days. Here is the method:
(§1) For chemical structure see supplemental FIG. 1.
Neuronal cultures were washed three times in 0.01 M PBS followed by fixation for 20 min in 4% paraformaldehyde at 4° C. The neuronal culture coverslips were then washed in PBS before incubation in blocking solution containing 0.1% Triton X-100 and 1% bovine serum albumin for 30 min at room temperature. […] Finally, neurons were mounted onto slides with anti-fade fluorescent mounting medium (Vector Laboratories) and stored at 4° C. for 2 days.
Cultures were imaged with a confocal laser inverted microscope (Olympus IX-70) equipped with a 60× (NA 1.2) objective. […] The density of synaptophysin (Syn) and PSD-95 was estimated from images by analyzing with IPP. The puncta of Syn and PSD-95, localized at the dendrites labeled by the neuronal marker MAP2, were counted manually. To determine the density of Syn and PSD-95 colocalization, we aligned two sets of images and resulting yellow clusters (Syn: red; PSD-95: green) localized at dendritic were quantified. Fluorescence spots (red and green) having a diameter between 0.1 and 0.6 μm were classified.

Assay [4] concerns hNSC-derived neurons. The method, then: Human fetal cortices-derived neural stem cells (hNSC; Angecon, China) were cultured in hNSC medium (Angecon) according to guidelines provided by Angecon. hNSCs were maintained in this medium for 10-14 days, passaged using Accutase (Invitrogen), washed and replated at a dilution of 1:3 to 1:5.
A previously described differentiation protocol was used to differentiate hNSCs to neurons. Briefly, hNSC cultures were dissociated into single cells with Accutase, and then plated on polyornithine/laminin (Sigma)-coated 6-well plates at 50,000 cells per cm^2 in neural maintenance medium with EGF (Invitrogen) and FGF2 (Pepro Tech) at a concentration of 10 ng ml^−1. Neural maintenance medium consists of a 1:1 mixture of DMEM/F12 and Neurobasal medium (Invitrogen), 1×N2 (Invitrogen), 1×B27 (Invitrogen), 1 mM L-glutamine, 0.1 mM non-essential amino acids, 5 μg ml^−1 insulin, 0.1 mM 2-mercaptoethanol, 25 U ml^−1 penicillin and […] streptomycin. […] Neurons were maintained 10-14 days in this medium; medium was replaced every day. When neuroepithelial cells appeared, Dispase (Roche) was used to collect cells. They were replated in neural maintenance medium with EGF and FGF2 at 20 ng ml^−1 for 2-4 days, then changed to neural maintenance medium and cultured for up to 80 days, replacing medium every other day.
(§2) Proteins were transferred to PVDF membranes (Millipore), probed with primary antibodies against Synaptophysin (Millipore), RIM1 and Rab3a (Synaptic System), PSD-95, NR2B, β-tubulin and/or β-actin (all from Cell Signaling Technology) and then followed by an appropriate HRP-coupled secondary antibody (Cell Signaling Technology). The signals were detected by ECL detection reagent (GE Healthcare) and captured on autoradiography film (Kodak). For quantification of protein signals, the integrated optical density (IOD) was measured with IPP, and β-tubulin or β-actin on the same lane served as loading controls.

Assay [5] concerns hippocampal neurons. Particulars: threonate (150 M) for 2 days, 0.6 Mg, p<0.01. The text has this: Mitochondrial transmembrane potential (Δψm) of hippocampal neurons was observed microscopically (Olympus IX-70) by using 5,5′,6,6′-tetrachloro-1,1′,3,3′-tetraethylbenzimidazolylcarbocyanine iodide (JC-1, Invitrogen). The monomeric form of JC-1 has an emission maximum at 529 nm. At higher concentrations or potentials the dye forms red fluorescent J-aggregates with an emission maximum of 590 nm. The ratio of J-aggregate/J-monomer is used as an estimate of Δψm.

Assay [6] concerns hippocampal neurons. Conditions: threonate 0-150 μM, 2 days.
Source text: as §1, §2
The source holds these as a separate data set.

The mark [7] stands for this setting: threonate 150 μM, time course 0-36 hr.
Setting [8] is: human neurons treated at day 90, dose-dependent, up to 400 μM.

Structures are written as SMILES.

As to `O=C(CCc1ccc(O)cc1)c1c(O)cc(O)cc1O` [phloretin, reference compound], the “decrease of intracellular [Mg2+] relative to placebo, inhibitor alone” value in assay [1] (4 hr, without threonate, p<0.01) is 10.4%. Also, the “decrease of functional terminal density, inhibitor alone” value in assay [2] (4 hr, without threonate, p<0.05) is on record as 10.5%.

As to `O=C(O)[C@H](O)[C@@H](O)CO` [threonate, (2R,3S)-2,3,4-trihydroxybutanoate], in assay [3], the “colocalization of Syn/PSD-95” value is reported as “significantly upregulated”, the “density of PSD-95 puncta” value was “significantly upregulated” and the “density of Syn puncta” value is “significantly upregulated”. The “threonate-mediated increase of intracellular [Mg2+] in the presence of CB” value in assay [1] (4 hr, with cytochalasin B (GLUTs inhibitor)) is “prevented”. Besides, in assay [1] (4 hr, with phloretin (SVCT2 inhibitor), p<0.0001), the “increase of intracellular [Mg2+] in the presence of phloretin” value came to 23.5%. The “threonate concentration that induced the largest change in intracellular [Mg2+]” value in assay [1] (2 day treatment, 0-200 μM tested) is 150 µM. For the same compound, in assay [1] (2 day treatment, threonate 0-200 μM, extracellular [Mg2+] 0.6, 0.8 or 1.2 mM), the “effect on intracellular [Mg2+]” value is “increase of intracellular [Mg^2+] in a dosage-dependent manner”. Also, the “effect on intracellular [Mg2+] at reduced extracellular [Mg2+]” value in assay [1] (threonate 150 μM, 4 hr, 0.1 mM extracellular [Mg2+]) is “no longer induced elevation”. The “increase of intracellular [Mg2+]” value in assay [1] (threonate 150 μM, 4 hr, 0.6 mM extracellular [Mg2+] (Example 3)) was approximately 27%. In addition, in assay [1] (setting [7]), the “persistence of the intracellular [Mg2+] increase” value was “persisted for the entire course of the experiment” and the “time at which effect on intracellular [Mg2+] was maximal” value was 2 h. For the same compound, in assay [1] (threonate (150 mM), 4 hr, 0.6 mM [Mg2+]o (Example 7), p<0.0001), the “increase of intracellular [Mg2+]” value is 29.6%. For the same compound, the “threonate dose response curve in human neurons compared to the rat dose response curve” value in assay [4] (effects continued to increase even at 400 μM) was “shifted toward a higher concentration”. For the same compound, in assay [4] (setting [8]), the “PSD-95 expression (Western blot)” value is “significantly increased” and the “Syn expression (Western blot)” value is “significantly increased”. Moreover, in assay [5], the “increase of mitochondrial membrane potential ΔΨm (JC-1 aggregate/monomer ratio)” value is on record as 49.6%. Also, in assay [2] (threonate 150 μM, 4 hr, with cytochalasin B), the “effect on functional terminal density in the presence of CB” value was “unable to elevate”. The “increase of functional terminal density relative to control in the presence of phloretin” value in assay [2] (threonate 150 μM, 4 hr, with phloretin, p<0.001) is 20.4%. For the same compound, the “number of functional terminals, dose dependence” value in assay [2] (threonate 50-150 μM, 2 days, extracellular [Mg2+] 0.6, 0.8 or 1.2 mM) is “increased in threonate-treated neurons in a dose-dependent manner”. The “effect on functional terminal density at reduced extracellular [Mg2+]” value in assay [2] (threonate 4 hr, 0.1 mM extracellular [Mg2+]) is reported as “prevented threonate from increasing functional terminal density”. In assay [2] (threonate (150 M) for 4 hr, 0.6 mM extracellular [Mg2+] (Example 5)), the “increase of functional terminal density” value was found to be 23%. In addition, in assay [6], the “NR2B-containing NMDAR expression (Western blot)” value was “significantly upregulated”, the “PSD-95 expression (Western blot)” value is “significantly increased”, the “RIM1 expression (Western blot)” value was “significantly increased” and the “Rab3a expression (Western blot)” value is recorded as “significantly increased”. The “Syn expression (Western blot)” value in assay [6] is reported as “significantly increased”.

With `C=C1[C@@H](C)[C@H]2[C@H](Cc3ccccc3)NC(=O)[C@]23OC(=O)/C=C/[C@H](O)CCC[C@@H](C)C/C=C/[C@H]3[C@@H]1O` [CB, cytochalasin B, reference compound], the “intracellular [Mg2+] relative to control, inhibitor alone” value in assay [1] (4 hr, without threonate) is listed as “did not alter”. The “density of functional terminals relative to control, inhibitor alone” value in assay [2] (4 hr, without threonate) is “did not affect”.

With `NCC(=O)O` [glycinate, reference compound], in assay [1], the “ability to increase intracellular [Mg2+], comparison of anions” value is reported as “threonate was the only one able to increase”. Moreover, the “effect on functional terminal density, comparison of anions” value in assay [2] is reported as “no significant effects”.

Source of the values: patent US10493048B2 (Neurocentria, Inc., priority 2015, dated 2019).
